Reference: patent US9850283B2, “Macrocyclic inhibitors of the PD-1/PD-L1 and CD80(B7-1)/PD-L1 protein/protein interactions” (BRISTOL-MYERS SQUIBB COMPANY, priority 2013, dated 2017)
Where two headings read alike, the source gives them in different places. Positions of bridges follow the written chain, without caps; N, C: chain ends. Non-standard residues stand in square brackets, D forms with d. Residues, ends and D or L forms follow the SMILES beside them. Hyp = O=C(O)[C@@H]1C[C@@H](O)CN1; Pip(4-aza) = O=C(O)[C@@H]1CNCCN1; 2Pal = N[C@@H](Cc1ccccn1)C(=O)O; NMeNle = CCCC[C@H](NC)C(=O)O; NMeA = CN[C@@H](C)C(=O)O; Dab = NCC[C@H](N)C(=O)O; Dap = NC[C@H](N)C(=O)O

Legend:
Human PD-L1/PD-1 = target: T1, Human PD-L1/PD-1 (Homo sapiens, UniProt Q9NZQ7); experiment: HTRF PD-1-Ig/PD-L1-His binding assay (human PD-L1); details: cluster symbol; read-out: HTRF IC50 cluster
T1 construct: made in house; host or cells: HEK293T
T1 sequence (Q9NZQ7 with tags, fused parts or gaps): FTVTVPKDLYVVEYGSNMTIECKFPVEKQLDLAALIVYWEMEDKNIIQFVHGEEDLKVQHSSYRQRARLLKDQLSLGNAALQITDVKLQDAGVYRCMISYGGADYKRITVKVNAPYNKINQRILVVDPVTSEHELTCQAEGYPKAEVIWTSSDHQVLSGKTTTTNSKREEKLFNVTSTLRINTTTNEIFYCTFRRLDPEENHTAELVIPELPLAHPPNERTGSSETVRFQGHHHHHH
How it was run: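 Steps: truncated PD-1-Ig and PD-L1-His fusions are incubated in dPBS containing 0.1% (w/v) BSA and 0.05% (v/v) Tween-20. Detection antibodies are then added (Eu cryptate anti-Ig at 1 nM final, APC anti-His at 20 nM final), and time-resolved FRET is measured.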

[1] = target: T2, LK35.2-hPD-L1 cells / PE-labeled PD-1-Ig (Homo sapiens, UniProt Q9NZQ7); experiment: LK35.2-hPD-L1 cell binding high-content screening assay; format: cell-based; details: cluster symbol, read-out: CBA IC50 cluster
T2 construct: expressed in transfected cells; host or cells: LK35.2 mouse B cell line
T2 sequence (Q9NZQ7 19-290): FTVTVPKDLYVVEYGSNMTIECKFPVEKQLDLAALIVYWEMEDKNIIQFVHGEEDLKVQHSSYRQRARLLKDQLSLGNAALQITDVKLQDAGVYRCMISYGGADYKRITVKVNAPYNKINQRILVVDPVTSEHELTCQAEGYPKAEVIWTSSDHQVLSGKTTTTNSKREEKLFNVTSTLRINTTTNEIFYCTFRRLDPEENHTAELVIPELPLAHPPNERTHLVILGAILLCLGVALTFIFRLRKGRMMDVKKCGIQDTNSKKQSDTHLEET
How it was run: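 Mouse LK35.2 B cells stably over-expressing human PD-L1, cultured overnight, treated with compound plus PE-labeled human PD-1-Ig (1 nM final) in RPMI/10% FCS for 1 h at 37 °C. After washing, bound fluorescence quantified by high-content imaging.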

[2] = cell binding assay, cell line not given
[3] = cell line of CBA not given (LK35.2-hPD-L1 or 293T-hPD-L1)

IC50 (Human PD-L1/PD-1)	IC50 [1, 2]	IC50 [1, 3]	Compound
0.385 to 6.74 nM	4.78 to 72.9 nM		CCCC[C@H]1C(=O)N(C)[C@@H](CCCC)C(=O)N[C@@H](CC(C)C)C(=O)N[C@H](C(=O)NCC(N)=O)CSCC(=O)N[C@@H](Cc2ccc(O)cc2)C(=O)N(C)[C@@H](C)C(=O)N[C@@H](CC(N)=O)C(=O)N2CCC[C@H]2C(=O)N[C@@H](CN)C(=O)N[C@@H](CC(C)C)C(=O)N2CCNC[C@H]2C(=O)N[C@@H](Cc2c[nH]c3ccccc23)C(=O)N[C@@H](CCN)C(=O)N[C@@H](Cc2c[nH]c3ccccc23)C(=O)N1C [Example 6050] ({CH2CO}-Y[NMeA]NP[Dap]L[Pip(4-aza)]W[Dab]W[NMeNle][NMeNle]LCG-NH2; thioether N-14)
0.385 to 6.74 nM	0.158 to 4.71 nM		CCCC[C@H]1C(=O)N(C)[C@@H](CCCC)C(=O)N[C@@H](CCN)C(=O)N[C@H](C(=O)NCC(N)=O)CSCC(=O)N[C@@H](Cc2ccc(O)cc2)C(=O)N(C)[C@@H](C)C(=O)N[C@@H](CC(N)=O)C(=O)N2CCC[C@H]2C(=O)N[C@@H](CN)C(=O)N[C@@H](CCC(N)=O)C(=O)N2C[C@H](O)C[C@H]2C(=O)N[C@@H](Cc2c[nH]c3ccccc23)C(=O)N[C@@H](CO)C(=O)N[C@@H](Cc2c[nH]c3ccccc23)C(=O)N1C [Example 5042] ({CH2CO}-Y[NMeA]NP[Dap]Q[Hyp]WSW[NMeNle][NMeNle][Dab]CG-NH2; thioether N-14)
> 30.5 nM	> 74.3 nM		CCCC[C@H]1C(=O)N(C)[C@@H](CCCC)C(=O)N[C@@H](CCCNC(=N)N)C(=O)N[C@H](C(=O)NCC(N)=O)CSCC(=O)N[C@@H](Cc2ccccn2)C(=O)N(C)[C@@H](C)C(=O)N[C@@H](CC(N)=O)C(=O)N2CCC[C@H]2C(=O)N[C@@H](Cc2c[nH]cn2)C(=O)N[C@@H](CC(C)C)C(=O)N2C[C@H](O)C[C@H]2C(=O)N[C@@H](Cc2c[nH]c3ccccc23)C(=O)N[C@@H](CO)C(=O)N[C@@H](Cc2c[nH]c3ccccc23)C(=O)N1C [Example 7025] ({CH2CO}-[2Pal][NMeA]NPHL[Hyp]WSW[NMeNle][NMeNle]RCG-NH2; thioether N-14)
6.76 to 30.3 nM	0.158 to 4.71 nM		CCCC[C@H]1C(=O)N(C)[C@@H](CCCC)C(=O)N[C@@H](CO)C(=O)NC(C(=O)NCC(N)=O)CSCC(=O)N[C@@H](Cc2ccc(O)cc2)C(=O)N(C)[C@@H](C)C(=O)N[C@@H](CC(N)=O)C(=O)N2CCC[C@H]2C(=O)N[C@@H](Cc2cnc[nH]2)C(=O)N[C@@H](CC(C)C)C(=O)N2C[C@H](O)C[C@H]2C(=O)N[C@@H](Cc2c[nH]c3ccccc23)C(=O)N[C@@H](CO)C(=O)N[C@@H](Cc2c[nH]c3ccccc23)C(=O)N1C (some centres unmarked) [Example 9029]
> 30.5 nM		> 74.3 nM	CCCC[C@H]1C(=O)N(C)CC(=O)N[C@@H](CC(=O)O)C(=O)N[C@@H](C(C)C)C(=O)N(C)[C@@H](Cc2ccccc2)C(=O)N[C@@H](Cc2ccc(O)cc2)C(=O)N(C)CC(=O)N[C@@H](Cc2c[nH]c3ccccc23)C(=O)N[C@@H](Cc2ccc(O)cc2)C(=O)N[C@@H](CC(C)C)C(=O)N[C@H](C(=O)NCC(N)=O)CSCC(=O)N[C@@H](Cc2ccccc2)C(=O)N(C)[C@@H](Cc2cnc[nH]2)C(=O)N1C [Example 3056-A] (HELM PEPTIDE1{[O=C(C[*:3])[*:2]].F.[meH].[CCCC[C@@H](C(=O)[*:2])N(C)[*:1]].[Sar].D.V.[meF].Y.[Sar].W.Y.L.C.G.[am]}$PEPTIDE1,PEPTIDE1,1:R3-14:R3$$$V2.0)
6.76 to 30.3 nM		> 74.3 nM	CC(C)C[C@@H]1NC(=O)[C@H](Cc2ccc(O)cc2)NC(=O)[C@H](Cc2c[nH]c3ccccc23)NC(=O)CN(C)C(=O)[C@H](Cc2ccc(O)cc2)NC(=O)[C@H](Cc2ccccc2)N(C)C(=O)[C@H](C(C)C)NC(=O)[C@H](CC(=O)O)NC(=O)CN(C)C(=O)[C@H](CCC(=O)O)N(C)C(=O)[C@H](Cc2ccccc2)N(C)C(=O)[C@H](Cc2ccccc2)NC(=O)CSC[C@@H](C(=O)NCC(N)=O)NC1=O [Example 3061] (HELM PEPTIDE1{[O=C(C[*:3])[*:2]].F.[meF].[meE].[Sar].D.V.[meF].Y.[Sar].W.Y.L.C.G.[am]}$PEPTIDE1,PEPTIDE1,1:R3-14:R3$$$V2.0)
0.385 to 6.74 nM	0.158 to 4.71 nM		CCCC[C@H]1C(=O)N(C)[C@@H](CCCC)C(=O)N[C@@H](CCCNC(=N)N)C(=O)N[C@H](C(=O)NCC(N)=O)CSCC(=O)N[C@@H](Cc2ccc(O)cc2)C(=O)N(C)[C@@H](C)C(=O)N[C@@H](CCN)C(=O)N2CCC[C@H]2C(=O)N[C@@H](CN)C(=O)N[C@@H](CCC(=O)O)C(=O)N2C[C@H](O)C[C@H]2C(=O)N[C@@H](Cc2c[nH]c3ccccc23)C(=O)N[C@@H](CO)C(=O)N[C@@H](Cc2c[nH]c3ccccc23)C(=O)N1C [Example 5131] ({CH2CO}-Y[NMeA][Dab]P[Dap]E[Hyp]WSW[NMeNle][NMeNle]RCG-NH2; thioether N-14)
